Values joined by “and” are separate entries in the source; they are usually repeats but may differ in a detail not shown here. Equal values may be shown once. Inconclusive results and toxic doses are left out.

The assay concerns B6C3F1 mice, Lewis lung carcinoma iv, survival T/C. Put plainly: NCI In Vivo Anticancer Drug Screen. Data for tumor model Lewis Lung Carcinoma (intravenous) in B6C3F1 mice. To be noted: endpoint: median survival time, schedule: Q01DX009 (ip), higher = longer survival. Put shortly:
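Read-out is survival, expressed as the treated-group measurement over the vehicle control-group measurement. Animals bore a transplantable tumor and were given compound.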

[1] abbreviates: dose: 1.0 mg/kg/injection, vehicle: saline.
Where [2] appears, read: dose: 25.0 mg/kg/injection, vehicle: saline.
The mark [3] stands for this setting: dose: 1.56 mg/kg/injection, vehicle: saline with Tween-80.
The mark [4] stands for this setting: dose: 3.12 mg/kg/injection, vehicle: saline with Tween-80.
[5] abbreviates: dose: 6.25 mg/kg/injection, vehicle: saline with Tween-80.
Where [6] appears, read: dose: 25.0 mg/kg/injection, vehicle: saline with Tween-80.
[7] abbreviates: dose: 50.0 mg/kg/injection, vehicle: saline with Tween-80.
The mark [8] stands for this setting: dose: 100.0 mg/kg/injection, vehicle: saline with Tween-80.
The mark [9] stands for this setting: dose: 200.0 mg/kg/injection, vehicle: saline with Tween-80.
The mark [10] stands for this setting: dose: 400.0 mg/kg/injection, vehicle: saline with Tween-80.
[11] abbreviates: dose: 12.5 mg/kg/injection, vehicle: Klucel (hydroxypropylcellulose) (HPC).
Where [12] appears, read: dose: 25.0 mg/kg/injection, vehicle: Klucel (hydroxypropylcellulose) (HPC).
The mark [13] stands for this setting: dose: 50.0 mg/kg/injection, vehicle: Klucel (hydroxypropylcellulose) (HPC).
Setting [14] is: dose: 100.0 mg/kg/injection, vehicle: Klucel (hydroxypropylcellulose) (HPC).
Where [15] appears, read: dose: 12.5 mg/kg/injection, vehicle: saline with Tween-80.
[16] abbreviates: dose: 25.0 mg/kg/injection, vehicle: suspension in saline.
The mark [17] stands for this setting: dose: 50.0 mg/kg/injection, vehicle: suspension in saline.
Setting [18] is: dose: 100.0 mg/kg/injection, vehicle: suspension in saline.
[19] abbreviates: dose: 200.0 mg/kg/injection, vehicle: suspension in saline.

As for `Nc1cc(Cl)c2[nH]cnc2n1`, the T/C is 94 % of control (dose: 6.25 mg/kg/injection, vehicle: water); 98 % of control (dose: 12.5 mg/kg/injection, vehicle: water); 100 % of control (dose: 25.0 mg/kg/injection, vehicle: water); 107 % of control (dose: 50.0 mg/kg/injection, vehicle: water); 109 % of control (dose: 100.0 mg/kg/injection, vehicle: water); 100 % of control (dose: 200.0 mg/kg/injection, vehicle: water).

In the case of `COc1cccc2c1C(=O)c1c(O)c3c(c(O)c1C2=O)C[C@@](O)(C(C)=O)C[C@@H]3OC1CC(N)C(O)C(C)O1` (some centres undefined), the T/C is 86 % of control (dose: 0.25 mg/kg/injection, vehicle: saline); 123 % of control (dose: 0.5 mg/kg/injection, vehicle: saline); 112 % of control under setting [1].

`NC(=O)c1ncn2c(=O)n(CCCl)nnc12`: the T/C (dose: 3.13 mg/kg/injection, vehicle: saline) was 113 % of control; the T/C (dose: 6.25 mg/kg/injection, vehicle: saline) was 123 % of control; the T/C under setting [2] was 309 % of control.

For the compound `CC(=O)OCC1OC([S-])C(OC(C)=O)C(OC(C)=O)C1OC(C)=O.CC[PH+](CC)CC.CC[PH+](CC)CC.[Au].[Au]` (centres undefined), the T/C is, setting by setting: (dose: 0.62 mg/kg/injection, vehicle: Klucel (hydroxypropylcellulose) (HPC)) 91 % of control and 104 % of control; (dose: 1.25 mg/kg/injection, vehicle: Klucel (hydroxypropylcellulose) (HPC)) 98 % of control and 106 % of control; (dose: 2.5 mg/kg/injection, vehicle: Klucel (hydroxypropylcellulose) (HPC)) 100 % of control and 109 % of control; (dose: 5.0 mg/kg/injection, vehicle: Klucel (hydroxypropylcellulose) (HPC)) 101 % of control; (dose: 10.0 mg/kg/injection, vehicle: Klucel (hydroxypropylcellulose) (HPC)) 102 % of control and 104 % of control.

For the compound `Cc1c(N)nc(C(CC(N)=O)NCC(N)C(N)=O)nc1C(=O)NC(C(=O)NC(C)C(O)CC(=O)NC(C(=O)NC(OC1OC(C)C(N)C(O)C1O)C(O)c1nc(-c2nc(C(=O)NCCCC(N)CC(=O)NCCCNCCCCN)cs2)cs1)C(C)O)C(OC1OC(CO)C(O)C(O)C1OC1OC(CO)C(O)C(OC(N)=O)C1O)c1cnc[nH]1` (centres undefined), the T/C was 124 % of control under setting [1] and 123 % of control (dose: 2.0 mg/kg/injection, vehicle: saline).

As for `COc1cccc2c1C(=O)c1c(O)c3c(c(O)c1C2=O)C[C@@](O)(C(C)=O)C[C@@H]3OC1CC(N(Cc2ccccc2)Cc2ccccc2)C(O)C(C)O1` (some centres undefined), the T/C reads like this: (dose: 1.5 mg/kg/injection, vehicle: saline with Tween-80) 104 % of control; (dose: 1.5 mg/kg/injection, vehicle: water) 96 % of control; under setting [3], 103 % of control; (dose: 3.0 mg/kg/injection, vehicle: saline with Tween-80) 112 % of control; (dose: 3.0 mg/kg/injection, vehicle: water) 99 % of control; under setting [4], 114 % of control. Further, the T/C is 113 % of control (dose: 6.0 mg/kg/injection, vehicle: saline with Tween-80); 112 % of control and 116 % of control under setting [5].

For the compound `CN(C=O)C(C(=O)Nc1cccc2c(OC(=O)C(N(C)C=O)(N(C)C=O)N(C)C=O)c(N=Nc3ccc(S(=O)(=O)Nc4nccs4)cc3)cc(N=Nc3ccc(S(=O)(=O)Nc4nccs4)cc3)c12)(N(C)C=O)N(C)C=O` (tested in a mixture with another compound), the T/C is 103 % of control under setting [6]; 98 % of control under setting [7]; 99 % of control and 104 % of control under setting [8]; 94 % of control and 98 % of control under setting [9]; 103 % of control and 110 % of control under setting [10]; 107 % of control (dose: 800.0 mg/kg/injection, vehicle: saline with Tween-80).

As to `O=c1oc2c(O)c(O)cc3c(=O)oc4c(O)c(O)cc1c4c23`, the T/C reads like this: under setting [11], 105 % of control; under setting [12], 105 % of control; under setting [13], 106 % of control; under setting [14], 110 % of control.

Regarding `O=C1C=C2C(=CCOC2O)O1` (centres undefined), the T/C (dose: 0.25 mg/kg/injection, vehicle: Klucel (hydroxypropylcellulose) (HPC)) was 99 % of control; the T/C (dose: 0.5 mg/kg/injection, vehicle: Klucel (hydroxypropylcellulose) (HPC)) was 104 % of control; the T/C (dose: 0.75 mg/kg/injection, vehicle: saline) was 97 % of control; the T/C (dose: 1.0 mg/kg/injection, vehicle: Klucel (hydroxypropylcellulose) (HPC)) is 94 % of control; the T/C (dose: 1.5 mg/kg/injection, vehicle: saline) was 98 % of control; the T/C (dose: 2.0 mg/kg/injection, vehicle: Klucel (hydroxypropylcellulose) (HPC)) was 98 % of control. For the same compound, the T/C (dose: 3.0 mg/kg/injection, vehicle: saline) is 98 % of control and the T/C (dose: 4.0 mg/kg/injection, vehicle: Klucel (hydroxypropylcellulose) (HPC)) is 94 % of control.

Take `Cc1ccc(NCCN(C)C)c2c(=O)c3cc(O)ccc3sc12`: the T/C (dose: 12.0 mg/kg/injection, vehicle: Klucel (hydroxypropylcellulose) (HPC)) is 101 % of control; the T/C under setting [11] was 103 % of control; the T/C under setting [12] was 105 % of control and 121 % of control; the T/C under setting [13] was 121 % of control and 123 % of control; the T/C under setting [14] was 120 % of control and 232 % of control; the T/C (dose: 200.0 mg/kg/injection, vehicle: Klucel (hydroxypropylcellulose) (HPC)) is 155 % of control.

Turning to `CC1c2ccccc2CC(CCN(C)C)c2ccccc21` (centres undefined), the T/C was 100 % of control under setting [5], 101 % of control under setting [15], 107 % of control under setting [6] and 96 % of control under setting [7].

Take `COC(OC(CO)C(O)S(=O)(=O)O)C(O)S(=O)(=O)O` (centres undefined): the T/C runs as follows: (dose: 12.5 mg/kg/injection, vehicle: saline) 109 % of control; under setting [2], 106 % of control; (dose: 50.0 mg/kg/injection, vehicle: saline) 97 % of control; (dose: 100.0 mg/kg/injection, vehicle: saline) 102 % of control; (dose: 200.0 mg/kg/injection, vehicle: saline) 98 % of control.

Consider `O=[n+]1c2ccccc2n([O-])c2ccccc21.[Cl][Ni][Cl]`, for which the T/C runs as follows: under setting [3], 93 % of control; under setting [4], 93 % of control; under setting [5], 90 % of control; under setting [15], 97 % of control; under setting [6], 97 % of control.

Consider `O=C1NC(O)c2ccccc2O1` (centres undefined), for which the T/C under setting [16] is 106 % of control, the T/C under setting [17] is 89 % of control, the T/C under setting [18] is 107 % of control and the T/C under setting [19] was 97 % of control.

For the compound `O=C1OC(=O)[C@H]2[C@@H]1[C@H]1C=C[C@@H]2OC1=O`, the T/C was 104 % of control (dose: 12.5 mg/kg/injection, vehicle: suspension in saline); 119 % of control under setting [16]; 98 % of control under setting [17]; 99 % of control under setting [18]; 104 % of control under setting [19].

Regarding `COc1cc(C(=O)N/N=C/c2cccc([N+](=O)[O-])c2)cc(OC)c1OC`, the T/C is 97 % of control under setting [6]; 98 % of control under setting [7]; 105 % of control under setting [8]; 93 % of control under setting [9]; 101 % of control under setting [10].
